According to patent US20230024096A1, “BIFUNCTIONAL COMPOUNDS FOR THE TREATMENT OF CANCER” (Hoffmann-La Roche Inc., priority 2019, published 2023):

Target: T1, SMARCA2 (Homo sapiens, UniProt P51531)
T1 construct: endogenous in cells; host or cells: HT1080 (CRISPR HiBiT knock-in clone, generated in house)
Assay: SMARCA2 HiBiT degradation assay (cellular)
Type: cell-based
Details: table head names A549; for DC50: 6 h incubation, HiBiT-tagged SMARCA2, luminescence read-out, read-out: HiBit A549 SMARCA2 IP (nM) 6 h; for Emax: A549, 6 h incubation, Emax = amount of residual protein remaining in the cell following compound treatment

T1 sequence (P51531 whole entry): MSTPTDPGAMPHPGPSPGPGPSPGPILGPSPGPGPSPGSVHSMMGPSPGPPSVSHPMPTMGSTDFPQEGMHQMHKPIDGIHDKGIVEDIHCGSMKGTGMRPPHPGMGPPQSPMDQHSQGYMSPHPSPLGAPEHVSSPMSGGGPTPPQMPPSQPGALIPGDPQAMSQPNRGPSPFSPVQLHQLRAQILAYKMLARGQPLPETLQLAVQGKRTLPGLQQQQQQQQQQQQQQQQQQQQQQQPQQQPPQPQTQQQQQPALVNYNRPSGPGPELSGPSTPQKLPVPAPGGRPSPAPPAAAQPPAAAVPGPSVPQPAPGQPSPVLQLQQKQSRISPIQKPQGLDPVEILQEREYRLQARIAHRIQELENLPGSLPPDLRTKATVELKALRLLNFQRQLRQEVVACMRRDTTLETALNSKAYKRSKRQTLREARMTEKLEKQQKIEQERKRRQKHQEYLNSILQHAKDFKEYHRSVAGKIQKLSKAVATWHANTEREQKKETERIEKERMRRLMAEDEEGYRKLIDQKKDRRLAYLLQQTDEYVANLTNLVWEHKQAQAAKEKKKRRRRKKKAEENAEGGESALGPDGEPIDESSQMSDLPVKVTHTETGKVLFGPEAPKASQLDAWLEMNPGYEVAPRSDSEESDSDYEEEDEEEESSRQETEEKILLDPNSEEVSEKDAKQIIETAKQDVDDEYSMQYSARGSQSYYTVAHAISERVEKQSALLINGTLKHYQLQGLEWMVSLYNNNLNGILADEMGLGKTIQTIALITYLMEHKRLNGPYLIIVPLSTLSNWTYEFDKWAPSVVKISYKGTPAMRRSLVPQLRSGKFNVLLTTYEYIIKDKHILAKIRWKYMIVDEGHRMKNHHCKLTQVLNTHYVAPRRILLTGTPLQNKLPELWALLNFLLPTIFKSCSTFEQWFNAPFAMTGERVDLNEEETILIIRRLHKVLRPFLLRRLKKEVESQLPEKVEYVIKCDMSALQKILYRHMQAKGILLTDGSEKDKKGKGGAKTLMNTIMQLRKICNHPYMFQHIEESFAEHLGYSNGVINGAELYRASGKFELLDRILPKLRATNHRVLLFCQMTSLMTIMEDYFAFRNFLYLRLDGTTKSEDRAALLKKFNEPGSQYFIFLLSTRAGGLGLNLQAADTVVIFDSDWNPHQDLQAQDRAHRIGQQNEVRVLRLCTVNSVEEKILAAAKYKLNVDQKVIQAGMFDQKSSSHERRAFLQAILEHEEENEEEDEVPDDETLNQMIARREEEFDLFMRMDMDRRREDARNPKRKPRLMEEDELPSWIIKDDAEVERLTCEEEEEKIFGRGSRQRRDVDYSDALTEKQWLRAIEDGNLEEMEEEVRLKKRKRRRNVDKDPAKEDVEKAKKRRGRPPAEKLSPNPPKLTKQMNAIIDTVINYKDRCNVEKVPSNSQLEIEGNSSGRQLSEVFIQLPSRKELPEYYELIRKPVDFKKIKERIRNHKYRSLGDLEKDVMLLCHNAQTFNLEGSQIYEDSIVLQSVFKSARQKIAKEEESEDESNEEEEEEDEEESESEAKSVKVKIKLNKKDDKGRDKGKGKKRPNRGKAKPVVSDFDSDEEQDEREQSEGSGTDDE

For `Nc1nnc(-c2ccccc2O)cc1N1CC2CCC(C1)N2c1cccc(OCCN2CCN(CCOC3CCN(c4ccc5c(c4)C(=O)N(C4CCC(=O)NC4=O)C5=O)CC3)CC2)c1` (racemic) [Example 35, rac-5-[4-[2-[4-[2-[3-[3-[3-amino-6-(2-hydroxyphenyl)pyridazin-4-yl]-3,8-diazabicyclo[3.2.1]octan-8-yl]phenoxy]ethyl]piperazin-1-yl]ethoxy]-1-piperidyl]-2-(2,6-dioxo-3-piperidyl)isoindoline-1,3-dione], the DC50 was 22 nM and the Emax was 33%.
`Nc1nnc(-c2ccccc2O)cc1N1CC2CCC(C1)N2c1cccc(OCCN2CCN(CCCOC3CCN(c4ccc5c(c4)C(=O)N(C4CCC(=O)NC4=O)C5=O)CC3)CC2)c1` (racemic) [Example 36, rac-5-[4-[3-[4-[2-[3-[3-[3-amino-6-(2-hydroxyphenyl)pyridazin-4-yl]-3,8-diazabicyclo[3.2.1]octan-8-yl]phenoxy]ethyl]piperazin-1-yl]propoxy]-1-piperidyl]-2-(2,6-dioxo-3-piperidyl)isoindoline-1,3-dione] was tested, and the DC50 was 16 nM and the Emax was 27%.
`Nc1nnc(-c2ccccc2O)cc1N1CC2CCC(C1)N2c1cccc(OCCN2CCN(CC3CCN(c4ccc5c(c4)C(=O)N(C4CCC(=O)NC4=O)C5=O)CC3)CC2)c1` (racemic) [Example 38, rac-5-[4-[[4-[2-[3-[3-[3-amino-6-(2-hydroxyphenyl)pyridazin-4-yl]-3,8-diazabicyclo[3.2.1]octan-8-yl]phenoxy]ethyl]piperazin-1-yl]methyl]-1-piperidyl]-2-(2,6-dioxo-3-piperidyl)isoindoline-1,3-dione] gave a DC50 of 20 nM and an Emax of 29%.
`Nc1nnc(-c2ccccc2O)cc1N1CC2CCC(C1)N2c1cccc(OCCN2CCN(C(=O)N3CCC(Oc4ccc5c(c4)C(=O)N(C4CCC(=O)NC4=O)C5=O)CC3)CC2)c1` (racemic) [Example 40, rac-5-[[1-[4-[2-[3-[3-[3-amino-6-(2-hydroxyphenyl)pyridazin-4-yl]-3,8-diazabicyclo[3.2.1]octan-8-yl]phenoxy]ethyl]piperazine-1-carbonyl]-4-piperidyl]oxy]-2-(2,6-dioxo-3-piperidyl)isoindoline-1,3-dione] was tested, and the DC50 was 22 nM and the Emax was 32%.
`Nc1nnc(-c2ccccc2O)cc1N1CC2CCC(C1)N2c1cccc(OCCN2CCN(C(=O)N3CCC(Oc4cccc5c4C(=O)N(C4CCC(=O)NC4=O)C5=O)CC3)CC2)c1` (racemic) [Example 41, rac-4-[[1-[4-[2-[3-[3-[3-amino-6-(2-hydroxyphenyl)pyridazin-4-yl]-3,8-diazabicyclo[3.2.1]octan-8-yl]phenoxy]ethyl]piperazine-1-carbonyl]-4-piperidyl]oxy]-2-(2,6-dioxo-3-piperidyl)isoindoline-1,3-dione] showed a DC50 of 46 nM and an Emax of 48%.
`Nc1nnc(-c2ccccc2O)cc1N1CC2CCC(C1)N2c1cccc(OCCN2CCN(C(=O)CCNC(=O)C3CCN(c4ccc5c(c4)C(=O)N(C4CCC(=O)NC4=O)C5=O)CC3)CC2)c1` (racemic) [Example 42, rac-N-[3-[4-[2-[3-[3-[3-amino-6-(2-hydroxyphenyl)pyridazin-4-yl]-3,8-diazabicyclo[3.2.1]octan-8-yl]phenoxy]ethyl]piperazin-1-yl]-3-oxo-propyl]-1-[2-(2,6-dioxo-3-piperidyl)-1,3-dioxo-isoindolin-5-yl]piperidine-4-carboxamide] was tested, and the DC50 was 519 nM and the Emax was 49%.
`Nc1nnc(-c2ccccc2O)cc1N1CC2CCC(C1)N2c1cccc(OCCN2CCN(C(=O)CN3CCC(c4ccc(OC5CCC(=O)NC5=O)cc4)CC3)CC2)c1` (racemic) [Example 43, rac-3-[4-[1-[2-[4-[2-[3-[3-[3-amino-6-(2-hydroxyphenyl)pyridazin-4-yl]-3,8-diazabicyclo[3.2.1]octan-8-yl]phenoxy]ethyl]piperazin-1-yl]-2-oxo-ethyl]-4-piperidyl]phenoxy]piperidine-2,6-dione] showed a DC50 of 32 nM and an Emax of 31%.
`Nc1nnc(-c2ccccc2O)cc1OC1CCCN(c2ccc(N3CCN(C(=O)CCCCCCCC(=O)N4CC[C@H](Nc5cccc6c5C(=O)N(C5CCC(=O)NC5=O)C6=O)C4)CC3)cc2)C1` (mixture of isomers) [Example 45, 2-(2,6-dioxo-3-piperidyl)-4-[[rac-(3S)-1-[9-[4-[4-[3-[3-amino-6-(2-hydroxyphenyl)pyridazin-4-yl]oxy-1-piperidyl]phenyl]piperazin-1-yl]-9-oxo-nonanoyl]pyrrolidin-3-yl]amino]isoindoline-1,3-dione] was tested, and the DC50 was 627 nM and the Emax was 58%.
In the case of `Nc1nnc(-c2ccccc2O)cc1N1CC2CCC(C1)N2c1cccc(CN2CCN(C(=O)C3CCN(c4ccc5c(c4)C(=O)N(C4CCC(=O)NC4=O)C5=O)CC3)CC2)c1` (racemic) [Example 46, rac-5-[4-[4-[[3-[3-[3-Amino-6-(2-hydroxyphenyl)pyridazin-4-yl]-3,8-diazabicyclo[3.2.1]octan-8-yl]phenyl]methyl]piperazine-1-carbonyl]-1-piperidyl]-2-(2,6-dioxo-3-piperidyl)isoindoline-1,3-dione], the DC50 is reported as 12 nM and the Emax is reported as 24%.
In the case of `Nc1nnc(-c2ccccc2O)cc1N1CC2CCC(C1)N2c1cccc(CN2CCN(C(=O)CCC3CCN(c4ccc5c(c4)C(=O)N(C4CCC(=O)NC4=O)C5=O)CC3)CC2)c1` (racemic) [Example 47, rac-5-[4-[3-[4-[[3-[3-[3-Amino-6-(2-hydroxyphenyl)pyridazin-4-yl]-3,8-diazabicyclo[3.2.1]octan-8-yl]phenyl]methyl]piperazin-1-yl]-3-oxo-propyl]-1-piperidyl]-2-(2,6-dioxo-3-piperidyl)isoindoline-1,3-dione], the DC50 is reported as 17 nM and the Emax is reported as 42%.
With `Nc1nnc(-c2ccccc2O)cc1N1CC2CCC(C1)N2c1cccc(CN2CCN(C(=O)CC3CCN(c4ccc5c(c4)C(=O)N(C4CCC(=O)NC4=O)C5=O)CC3)CC2)c1` (racemic) [Example 48, rac-5-[4-[2-[4-[[3-[3-[3-Amino-6-(2-hydroxyphenyl)pyridazin-4-yl]-3,8-diazabicyclo[3.2.1]octan-8-yl]phenyl]methyl]piperazin-1-yl]-2-oxo-ethyl]-1-piperidyl]-2-(2,6-dioxo-3-piperidyl)isoindoline-1,3-dione] the DC50 was 15 nM and the Emax was 45%.
`Nc1nnc(-c2ccccc2O)cc1N1CC2CCC(C1)N2c1cccc(OCCN2CCN(C(=O)N3CCN(c4ccc5c(c4)C(=O)N(C4CCC(=O)NC4=O)C5=O)CC3)CC2)c1` (racemic) [Example 49, rac-5-[4-[4-[2-[3-[3-[3-amino-6-(2-hydroxyphenyl)pyridazin-4-yl]-3,8-diazabicyclo[3.2.1]octan-8-yl]phenoxy]ethyl]piperazine-1-carbonyl]piperazin-1-yl]-2-(2,6-dioxo-3-piperidyl)isoindoline-1,3-dione] showed a DC50 of 4 nM and an Emax of 39%.
For `Nc1nnc(-c2ccccc2O)cc1N1CC2CCC(C1)N2c1cccc(OCCN2CCN(C(=O)N3CCC(c4ccc(OC5CCC(=O)NC5=O)cc4)CC3)CC2)c1` (racemic) [Example 50, rac-3-[4-[1-[4-[2-[3-[3-[3-amino-6-(2-hydroxyphenyl)pyridazin-4-yl]-3,8-diazabicyclo[3.2.1]octan-8-yl]phenoxy]ethyl]piperazine-1-carbonyl]-4-piperidyl]phenoxy]piperidine-2,6-dione], the DC50 was 16 nM and the Emax was 44%.
With `Nc1nnc(-c2ccccc2O)cc1N1CC2CCC(C1)N2c1cccc(OCCN2CCN(C(=O)N3CCN(c4ccc(OC5CCC(=O)NC5=O)cc4)CC3)CC2)c1` (racemic) [Example 51, rac-3-[4-[4-[4-[2-[3-[3-[3-amino-6-(2-hydroxyphenyl)pyridazin-4-yl]-3,8-diazabicyclo[3.2.1]octan-8-yl]phenoxy]ethyl]piperazine-1-carbonyl]piperazin-1-yl]phenoxy]piperidine-2,6-dione] the DC50 was 86 nM and the Emax was 54%.
In the case of `Nc1nnc(-c2ccccc2O)cc1N1CC2CCC(C1)N2c1cccc(OCCN2CCN(C(=O)N3CCC4(CC3)CCN(c3ccc5c(c3)C(=O)N(C3CCC(=O)NC3=O)C5=O)CC4)CC2)c1` (racemic) [Example 52, rac-5-[3-[4-[2-[3-[3-[3-amino-6-(2-hydroxyphenyl)pyridazin-4-yl]-3,8-diazabicyclo[3.2.1]octan-8-yl]phenoxy]ethyl]piperazine-1-carbonyl]-3,9-diazaspiro[5.5]undecan-9-yl]-2-(2,6-dioxo-3-piperidyl)isoindoline-1,3-dione], the DC50 is reported as 37 nM and the Emax is reported as 52%.
`Nc1nnc(-c2ccccc2O)cc1N1CC2CCC(C1)N2c1cccc(CN2CCN(CCOC3CCN(c4ccc5c(c4)C(=O)N(C4CCC(=O)NC4=O)C5=O)CC3)CC2)c1` (racemic) [Example 55, rac-5-[4-[2-[4-[[3-[3-[3-amino-6-(2-hydroxyphenyl)pyridazin-4-yl]-3,8-diazabicyclo[3.2.1]octan-8-yl]phenyl]methyl]piperazin-1-yl]ethoxy]-1-piperidyl]-2-(2,6-dioxo-3-piperidyl)isoindoline-1,3-dione] gave a DC50 of 19 nM and an Emax of 35%.
With `Nc1nnc(-c2ccccc2O)cc1N1CC2CCC(C1)N2c1cccc(CN2CCN(CCCOC3CCN(c4ccc5c(c4)C(=O)N(C4CCC(=O)NC4=O)C5=O)CC3)CC2)c1` (racemic) [Example 56, rac-5-[4-[3-[4-[[3-[3-[3-Amino-6-(2-hydroxyphenyl)pyridazin-4-yl]-3,8-diazabicyclo[3.2.1]octan-8-yl]phenyl]methyl]piperazin-1-yl]propoxy]-1-piperidyl]-2-(2,6-dioxo-3-piperidyl)isoindoline-1,3-dione] the DC50 was 10 nM and the Emax was 36%.
With `Nc1nnc(-c2ccccc2O)cc1N1CC2CCC(C1)N2c1cccc(CC2CCN(C(=O)CCNc3cccc4c3C(=O)N(C3CCC(=O)NC3=O)C4=O)CC2)c1` (racemic) [Example 58, rac-4-[[3-[4-[[3-[3-[3-amino-6-(2-hydroxyphenyl)pyridazin-4-yl]-3,8-diazabicyclo[3.2.1]octan-8-yl]phenyl]methyl]-1-piperidyl]-3-oxo-propyl]amino]-2-(2,6-dioxo-3-piperidyl)isoindoline-1,3-dione] the DC50 was 43 nM and the Emax was 59%.
